Measurements published in ChEMBL document CHEMBL1126979, “Studies toward structure-activity relationships of taxol: synthesis and cytotoxicity of taxol analogues with C-2 modified phenylisoserine side chains” (Bioorg Med Chem Lett, 1993).

Test system: HCT-116
Assay: Compound was evaluated by a cytotoxicity assay in HCT116 human colon carcinoma cell line
Format: functional, cell-based

| Structure (SMILES) | IC50 [µM] |
| --- | --- |
| CC(=O)O[C@H]1C(=O)[C@@]2(C)C([C@H](OC(=O)c3ccccc3)[C@]3(O)C[C@H](OC(=O)C[C@@H](NC(=O)c4ccccc4)c4ccccc4)C(C)=C1C3(C)C)[C@]1(OC(C)=O)CO[C@@H]1C[C@@H]2O (some centres undefined) | 0.297 |
| CC(=O)O[C@H]1C(=O)[C@@]2(C)[C@H]([C@H](OC(=O)c3ccccc3)[C@]3(O)C[C@H](OC(=O)[C@H](O)[C@@H](NC(=O)c4ccccc4)c4ccccc4)C(C)=C1C3(C)C)[C@]1(OC(C)=O)CO[C@@H]1C[C@@H]2O [PACLITAXEL] | 0.004 |
| CC(=O)O[C@H]1C(=O)[C@@]2(C)C([C@H](OC(=O)c3ccccc3)[C@]3(O)C[C@H](OC(=O)[C@H](F)[C@@H](NC(=O)c4ccccc4)c4ccccc4)C(C)=C1C3(C)C)[C@]1(OC(C)=O)CO[C@@H]1C[C@@H]2O (some centres undefined) | 0.475 |
| CO[C@@H](C(=O)O[C@H]1C[C@@]2(O)[C@@H](OC(=O)c3ccccc3)C3[C@](C)(C(=O)[C@H](OC(C)=O)C(=C1C)C2(C)C)[C@@H](O)C[C@H]1OC[C@@]31OC(C)=O)[C@@H](NC(=O)c1ccccc1)c1ccccc1 (some centres undefined) | 0.866 |
